Converted amounts (≈) assume the structure as drawn.
What was measured:
Assay type in all cases: cell-based
[1] = system: E. coli AG100A; assay: Broth microdilution MIC in CAMHB; settings: Escherichia coli, read-out: Minimum Inhibitory Concentration, E. coli AG100A
In short: (§1)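 CLSI broth microdilution in CAMHB: 2-fold compound dilutions inoculated at 2-8×10^5 CFU/mL from 3-5 h log-phase cultures. Incubated at 37 °C for 16-20 h (Enterobacteriaceae, Pseudomonas); MIC read visually as lowest concentration without growth. Strains include hyper-permeable and efflux-deficient mutants.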

[2] = system: E. coli ATCC 25922; assay: Broth microdilution MIC in CAMHB; settings: Escherichia coli, ATCC25922; E. coli ATCC 25922; MHB; read-out: Minimum Inhibitory Concentration, E. coli 25922
In short: as §1

[3] = system: E. coli D22; assay: Broth microdilution MIC in CAMHB; settings: Escherichia coli; E. coli D22 (hyper-permeable); MHB; read-out: Minimum Inhibitory Concentration, E. coli D22
In short: as §1

[4] = system: P. aeruginosa (ΔmexAB-oprM); assay: Broth microdilution MIC in CAMHB; settings: Pseudomonas aeruginosa, read-out: Minimum Inhibitory Concentration, P. aeruginosa ΔmexAB-OprM
In short: as §1

[5] = system: N. gonorrhoeae ATCC 49226; assay: Liquid broth MIC in Fastidious broth; settings: Neisseria gonorrhoeae, ATCC49226; N. gonorrhoeae strain ATCC 49226; Fastidious broth; read-out: Minimum Inhibitory Concentration, N. gonorrhoeae ATCC 49226
In short: (§2)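 Colonies were swabbed from chocolate agar after 24 h growth and standardised by optical density at 600 nm. Compounds were serially diluted twofold in Fastidious broth, and bacteria added to give 5×10^5 CFU/mL. After about 24 h at 36 °C in 5% CO2, the lowest concentration allowing under 10% growth was taken as MIC.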

[6] = system: N. gonorrhoeae FA1090; assay: Liquid broth MIC in Fastidious broth; settings: Neisseria gonorrhoeae; N. gonorrhoeae strain FA1090; Fastidious broth; read-out: Minimum Inhibitory Concentration, N. gonorrhoeae FA1090
In short: as §2

[7] = system: N. gonorrhoeae H041; assay: Liquid broth MIC in Fastidious broth; settings: Neisseria gonorrhoeae, H041, read-out: Minimum Inhibitory Concentration, N. gonorrhoeae H041
In short: (§3)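 Mosaic PBP2 producers; colonies from 24 h chocolate agar, saline suspension, OD600. Fastidious broth, 2-fold dilutions, 5×10^5 CFU/mL. ~24 h, 36 °C, 5% CO2; visual MIC, <10% growth cutoff.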

[8] = system: N. gonorrhoeae WHO G; assay: Liquid broth MIC in Fastidious broth; settings: Neisseria gonorrhoeae; N. gonorrhoeae strain WHO G; Fastidious broth; read-out: Minimum Inhibitory Concentration, N. gonorrhoeae WHO G
In short: as §2

[9] = system: N. gonorrhoeae WHO K; assay: Liquid broth MIC in Fastidious broth; settings: Neisseria gonorrhoeae, read-out: Minimum Inhibitory Concentration, N. gonorrhoeae WHO K
In short: as §3

[10] = system: N. gonorrhoeae WHO L; assay: Liquid broth MIC in Fastidious broth; settings: Neisseria gonorrhoeae; N. gonorrhoeae strain WHO L; Fastidious broth; read-out: Minimum Inhibitory Concentration, N. gonorrhoeae WHO L
In short: as §2

Row | Compound | MIC [1] | MIC [2] | MIC [3] | MIC [4] | MIC [5] | MIC [6] | MIC [7] | MIC [8] | MIC [9] | MIC [10]
1 | CCN1CCN(C(=O)NC(C(=O)N[C@H]2Cc3cccc(C(=O)O)c3OB2O)c2cccc(O)c2)C(=O)C1=O (stereo partly drawn) [Example 68, (3R)-3-(2-(4-ethyl-2,3-dioxopiperazine-1-carboxamido)-2-(3-hydroxyphenyl)acetamido)-2-hydroxy-3,4-dihydro-2H-benzo[e][1,2]oxaborinine-8-carboxylic acid] | 2 to 4 µg/mL (≈ 3.81 to 7.63 µM) | 32 to 64 µg/mL (≈ 61 to 122 µM) | 2 to 4 µg/mL (≈ 3.81 to 7.63 µM) | 2 to 4 µg/mL (≈ 3.81 to 7.63 µM) | 4 to 8 µg/mL (≈ 7.63 to 15.3 µM) | 0.25 to 0.5 µg/mL (≈ 0.477 to 0.954 µM) | 16 to 32 µg/mL (≈ 30.5 to 61 µM) | 4 to 8 µg/mL (≈ 7.63 to 15.3 µM) | 16 to 32 µg/mL (≈ 30.5 to 61 µM) | 16 to 32 µg/mL (≈ 30.5 to 61 µM)
2 | CCN1CCN(C(=O)NC(C(=O)N[C@H]2Cc3ccc(CO)c(C(=O)O)c3OB2O)c2csc(N)n2)C(O)C1=O (stereo partly drawn) [Example 58, (3R)-3-(2-(2-aminothiazol-4-yl)-2-(4-ethyl-2-hydroxy-3-oxopiperazine-1-carboxamido)acetamido)-2-hydroxy-7-(hydroxymethyl)-3,4-dihydro-2H-benzo[el][1,2]oxaborinine-8-carboxylic acid] | > 128 µg/mL | > 128 µg/mL | > 128 µg/mL | > 128 µg/mL | > 64 µg/mL | > 64 µg/mL | > 64 µg/mL | > 64 µg/mL | > 64 µg/mL | > 64 µg/mL
3 | NCCN1CCN(C(=O)N[C@@H](C(=O)N[C@H]2Cc3cccc(C(=O)O)c3OB2O)c2ccc(O)cc2F)C(=O)C1=O (single isomer, unassigned) [Example 89] | 2 to 4 µg/mL (≈ 3.59 to 7.18 µM) | 32 to 64 µg/mL (≈ 57.4 to 115 µM) | 8 to 16 µg/mL (≈ 14.4 to 28.7 µM) | 8 to 16 µg/mL (≈ 14.4 to 28.7 µM) | 16 to 32 µg/mL (≈ 28.7 to 57.4 µM) | 1 to 2 µg/mL (≈ 1.79 to 3.59 µM) | > 64 µg/mL | 4 to 8 µg/mL (≈ 7.18 to 14.4 µM) | > 64 µg/mL | > 64 µg/mL
4 | CCN1CCN(C(=O)NC(C(=O)N[C@H]2Cc3cccc(C(=O)O)c3OB2O)c2ccc(N)c(F)c2)C(=O)C1=O (stereo partly drawn) [Example 50, (3R)-3-(2-(4-amino-3-fluorophenyl)-2-(4-ethyl-2,3-dioxopiperazine-1-carboxamido)acetamido)-2-hydroxy-3,4-dihydro-2H-benzo[e][1,2]oxaborinine-8-carboxylic acid] | 2 to 4 µg/mL (≈ 3.69 to 7.39 µM) | 32 to 64 µg/mL (≈ 59.1 to 118 µM) | 2 to 4 µg/mL (≈ 3.69 to 7.39 µM) | 2 to 4 µg/mL (≈ 3.69 to 7.39 µM) | 1 to 2 µg/mL (≈ 1.85 to 3.69 µM) | < 0.125 µg/mL | 16 to 32 µg/mL (≈ 29.6 to 59.1 µM) | 1 to 2 µg/mL (≈ 1.85 to 3.69 µM) | 16 to 32 µg/mL (≈ 29.6 to 59.1 µM) | 16 to 32 µg/mL (≈ 29.6 to 59.1 µM)
5 | O=C(Nc1ccccc1)NC(C(=O)N[C@H]1Cc2ccc(F)c(C(=O)O)c2OB1O)c1ncc(O)cc1F (stereo partly drawn) [Example 49, (3R)-7-fluoro-3-(2-(3-fluoro-5-hydroxypyridin-2-yl)-2-(3-phenylureido)acetamido)-2-hydroxy-3,4-dihydro-2H-benzo[e][1,2]oxaborinine-8-carboxylic acid] | > 128 µg/mL | > 128 µg/mL | 8 to 16 µg/mL (≈ 15.6 to 31.2 µM) | 32 to 64 µg/mL (≈ 62.5 to 125 µM) | 16 to 32 µg/mL (≈ 31.2 to 62.5 µM) | 4 to 8 µg/mL (≈ 7.81 to 15.6 µM) | > 64 µg/mL | 16 to 32 µg/mL (≈ 31.2 to 62.5 µM) | > 64 µg/mL | 16 to 32 µg/mL (≈ 31.2 to 62.5 µM)
